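All cell lines were grown in 96-well plates and treated with compound for 48 hours. At the GI50, growth is halved. TGI: concentration producing complete growth inhibition.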
What was measured:
Test in all cases: NCI anticancer screen, dose series, 48 h
ACHN renal = test system: ACHN renal
MALME-3M melanoma = test system: MALME-3M melanoma
SNB-75 CNS = test system: SNB-75 CNS
HOP-62 NSCLC = test system: HOP-62 NSCLC
EKVX NSCLC = test system: EKVX NSCLC
SNB-19 CNS = test system: SNB-19 CNS
OVCAR-4 ovarian = test system: OVCAR-4 ovarian
U251 CNS = test system: U251 CNS
PC-3 prostate = test system: PC-3 prostate
UO-31 renal = test system: UO-31 renal
A498 renal = test system: A498 renal
M14 melanoma = test system: M14 melanoma
T-47D breast = test system: T-47D breast
HCT-116 colon = test system: HCT-116 colon
NCI-H226 lung = test system: NCI-H226 lung
UACC-62 melanoma = test system: UACC-62 melanoma
SK-MEL-28 melanoma = test system: SK-MEL-28 melanoma
MDA-MB-435 = test system: MDA-MB-435
786-0 renal = test system: 786-0 renal
IGROV1 ovarian = test system: IGROV1 ovarian
SK-MEL-5 melanoma = test system: SK-MEL-5 melanoma
CAKI-1 renal = test system: CAKI-1 renal
DU-145 prostate = test system: DU-145 prostate
OVCAR-3 ovarian = test system: OVCAR-3 ovarian
RPMI-8226 leukemia = test system: RPMI-8226 leukemia
MDA-MB-231 breast = test system: MDA-MB-231 breast
HT29 colon = test system: HT29 colon
KM12 colon = test system: KM12 colon
NCI-H460 lung = test system: NCI-H460 lung
SK-MEL-2 melanoma = test system: SK-MEL-2 melanoma
SK-OV-3 ovarian = test system: SK-OV-3 ovarian
HCT-15 colon = test system: HCT-15 colon
OVCAR-8 ovarian = test system: OVCAR-8 ovarian
TK-10 renal = test system: TK-10 renal
OVCAR-5 ovarian = test system: OVCAR-5 ovarian
LOX IMVI melanoma = test system: LOX IMVI melanoma
NCI-H522 lung = test system: NCI-H522 lung
BT-549 breast = test system: BT-549 breast
NCI-H23 lung = test system: NCI-H23 lung
SN12C renal = test system: SN12C renal
HS 578T breast = test system: HS 578T breast
HCC-2998 colon = test system: HCC-2998 colon
SF-539 CNS = test system: SF-539 CNS
SW-620 colon = test system: SW-620 colon
RXF 393 renal = test system: RXF 393 renal
A549 NSCLC = test system: A549 NSCLC
SF-295 CNS = test system: SF-295 CNS
HL-60(TB) leukemia = test system: HL-60(TB) leukemia
MOLT-4 leukemia = test system: MOLT-4 leukemia
K-562 leukemia = test system: K-562 leukemia
SR leukemia = test system: SR leukemia
UACC-257 melanoma = test system: UACC-257 melanoma
CCRF-CEM leukemia = test system: CCRF-CEM leukemia
MCF7 breast = test system: MCF7 breast
COLO 205 colon = test system: COLO 205 colon
HOP-92 NSCLC = test system: HOP-92 NSCLC
SF-268 CNS = test system: SF-268 CNS
NCI/ADR-RES ovarian = test system: NCI/ADR-RES ovarian

For `CC1=C(SCCC(=O)OCC(=O)NCCC[Te]c2ccccc2)C(=O)c2ccccc2C1=O`, the GI50 (ACHN renal) was 2.76 µM, the TGI (ACHN renal) was 10.2 µM and the GI50 (MALME-3M melanoma) was 2.22 µM. The TGI (MALME-3M melanoma) was 5.56 µM, the GI50 (SNB-75 CNS) was 1.37 µM and the TGI (SNB-75 CNS) was 5.42 µM. The GI50 (HOP-62 NSCLC) was 2.04 µM, the TGI (HOP-62 NSCLC) was 5.19 µM and the GI50 (EKVX NSCLC) was 0.443 µM. The TGI (EKVX NSCLC) was 5.11 µM, the GI50 (SNB-19 CNS) was 2.78 µM and the TGI (SNB-19 CNS) was 10.4 µM. It also gave a GI50 (OVCAR-4 ovarian) of 2.21 µM, a TGI (OVCAR-4 ovarian) of 7.34 µM and a GI50 (U251 CNS) of 2.39 µM. It also gave a TGI (U251 CNS) of 8.06 µM, a GI50 (PC-3 prostate) of 1.96 µM and a TGI (PC-3 prostate) of 9.76 µM. For the same compound, the GI50 (UO-31 renal) was 1.74 µM, the TGI (UO-31 renal) was 8.66 µM and the GI50 (A498 renal) was 1.9 µM. The TGI (A498 renal) was 6.16 µM, the GI50 (M14 melanoma) was 2.11 µM and the TGI (M14 melanoma) was 5.27 µM. For the same compound, the GI50 (T-47D breast) was 2.2 µM, the TGI (T-47D breast) was 6.21 µM and the GI50 (HCT-116 colon) was 1.63 µM. For the same compound, the TGI (HCT-116 colon) was 4.12 µM, the GI50 (NCI-H226 lung) was 1.64 µM and the TGI (NCI-H226 lung) was 3.64 µM. The GI50 (UACC-62 melanoma) was 1.94 µM, the TGI (UACC-62 melanoma) was 4.83 µM and the GI50 (SK-MEL-28 melanoma) was 2.41 µM. The TGI (SK-MEL-28 melanoma) was 5.78 µM, the GI50 (MDA-MB-435) was 3.07 µM and the TGI (MDA-MB-435) was 10.4 µM. It also gave a GI50 (786-0 renal) of 2.64 µM, a TGI (786-0 renal) of 7.33 µM and a GI50 (IGROV1 ovarian) of 1.92 µM. For the same compound, the TGI (IGROV1 ovarian) was 5.58 µM, the GI50 (SK-MEL-5 melanoma) was 1.52 µM and the TGI (SK-MEL-5 melanoma) was 2.88 µM. The GI50 (CAKI-1 renal) was 1.86 µM, the TGI (CAKI-1 renal) was 6.87 µM and the GI50 (DU-145 prostate) was 2.95 µM. For the same compound, the TGI (DU-145 prostate) was 8.05 µM, the GI50 (OVCAR-3 ovarian) was 2.23 µM and the TGI (OVCAR-3 ovarian) was 4.81 µM. For the same compound, the GI50 (RPMI-8226 leukemia) was 2.64 µM, the TGI (RPMI-8226 leukemia) was 9.84 µM and the GI50 (MDA-MB-231 breast) was 1.8 µM. It also gave a TGI (MDA-MB-231 breast) of 4.34 µM, a GI50 (HT29 colon) of 3.29 µM and a TGI (HT29 colon) of 11.1 µM. For the same compound, the GI50 (KM12 colon) was 2.96 µM, the TGI (KM12 colon) was 10.1 µM and the GI50 (NCI-H460 lung) was 0.79 µM. The TGI (NCI-H460 lung) was 3 µM, the GI50 (SK-MEL-2 melanoma) was 2.75 µM and the TGI (SK-MEL-2 melanoma) was 7.24 µM. The GI50 (SK-OV-3 ovarian) was 1.9 µM, the TGI (SK-OV-3 ovarian) was 4.62 µM and the GI50 (HCT-15 colon) was 2.73 µM. For the same compound, the TGI (HCT-15 colon) was 11.4 µM, the GI50 (OVCAR-8 ovarian) was 2.74 µM and the TGI (OVCAR-8 ovarian) was 11 µM. The GI50 (TK-10 renal) was 3.87 µM, the TGI (TK-10 renal) was 12.4 µM and the GI50 (OVCAR-5 ovarian) was 2.86 µM. For the same compound, the TGI (OVCAR-5 ovarian) was 7.68 µM, the GI50 (LOX IMVI melanoma) was 1.72 µM and the TGI (LOX IMVI melanoma) was 4.07 µM. It also gave a GI50 (NCI-H522 lung) of 2.71 µM, a TGI (NCI-H522 lung) of 10.8 µM and a GI50 (BT-549 breast) of 1.7 µM. The TGI (BT-549 breast) was 3.95 µM, the GI50 (NCI-H23 lung) was 1.84 µM and the TGI (NCI-H23 lung) was 5.25 µM. It also gave a GI50 (SN12C renal) of 2.21 µM, a TGI (SN12C renal) of 7.99 µM and a GI50 (HS 578T breast) of 2.97 µM. The TGI (HS 578T breast) was greater than 33.7 µM, the GI50 (HCC-2998 colon) was 1.78 µM and the TGI (HCC-2998 colon) was 4.58 µM. The GI50 (SF-539 CNS) was 2.29 µM, the TGI (SF-539 CNS) was 6.71 µM and the GI50 (SW-620 colon) was 3.79 µM. It also gave a TGI (SW-620 colon) of 15.6 µM, a GI50 (RXF 393 renal) of 1.78 µM and a TGI (RXF 393 renal) of 5.16 µM. The GI50 (A549 NSCLC) was 0.793 µM, the TGI (A549 NSCLC) was 2.95 µM and the GI50 (SF-295 CNS) was 1.11 µM. For the same compound, the TGI (SF-295 CNS) was 4.24 µM, the GI50 (HL-60(TB) leukemia) was 2.58 µM and the TGI (HL-60(TB) leukemia) was 7.07 µM. It also gave a GI50 (MOLT-4 leukemia) of 3.12 µM, a TGI (MOLT-4 leukemia) of 12.2 µM and a GI50 (K-562 leukemia) of 3.3 µM. The TGI (K-562 leukemia) was 19.4 µM, the GI50 (SR leukemia) was 1.97 µM and the TGI (SR leukemia) was 17.4 µM. The GI50 (UACC-257 melanoma) was 2.88 µM, the TGI (UACC-257 melanoma) was 8.23 µM and the GI50 (CCRF-CEM leukemia) was 2.1 µM. The TGI (CCRF-CEM leukemia) was 19.6 µM, the GI50 (MCF7 breast) was 2.5 µM and the TGI (MCF7 breast) was 10.7 µM. For the same compound, the GI50 (COLO 205 colon) was 1.97 µM, the TGI (COLO 205 colon) was 3.88 µM and the GI50 (HOP-92 NSCLC) was 1.8 µM. It also gave a TGI (HOP-92 NSCLC) of 5.01 µM, a GI50 (SF-268 CNS) of 2.61 µM and a TGI (SF-268 CNS) of 9.42 µM. It also gave a GI50 (NCI/ADR-RES ovarian) of 2.22 µM and a TGI (NCI/ADR-RES ovarian) of 7.32 µM.

From PubChem BioAssay (NCI)
